# Test results taken from PubChem BioAssay (NCI).
#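 All cell lines were grown in 96-well plates and treated with compound for 48 hours. At the GI50, growth is halved. Definition used: TGI = concentration required for complete inhibition of growth.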
# Key:
# Assay in all cases: NCI tumour cell line growth inhibition, 48 h
# PC-3 prostate = test system: PC-3 prostate
# TK-10 renal = test system: TK-10 renal
# SK-MEL-2 melanoma = test system: SK-MEL-2 melanoma
# IGROV1 ovarian = test system: IGROV1 ovarian
# SNB-75 CNS = test system: SNB-75 CNS
# SR leukemia = test system: SR leukemia
# SW-620 colon = test system: SW-620 colon
# OVCAR-5 ovarian = test system: OVCAR-5 ovarian
# MDA-MB-231 breast = test system: MDA-MB-231 breast
# HCT-116 colon = test system: HCT-116 colon
# KM12 colon = test system: KM12 colon
# CAKI-1 renal = test system: CAKI-1 renal
# U251 CNS = test system: U251 CNS
# NCI-H226 lung = test system: NCI-H226 lung
# SF-268 CNS = test system: SF-268 CNS
# SNB-19 CNS = test system: SNB-19 CNS
# HOP-62 NSCLC = test system: HOP-62 NSCLC
# SK-MEL-5 melanoma = test system: SK-MEL-5 melanoma
# HOP-92 NSCLC = test system: HOP-92 NSCLC
# HCT-15 colon = test system: HCT-15 colon
# LOX IMVI melanoma = test system: LOX IMVI melanoma
# UACC-62 melanoma = test system: UACC-62 melanoma
# SK-OV-3 ovarian = test system: SK-OV-3 ovarian
# UACC-257 melanoma = test system: UACC-257 melanoma
# BT-549 breast = test system: BT-549 breast
# MOLT-4 leukemia = test system: MOLT-4 leukemia
# NCI/ADR-RES ovarian = test system: NCI/ADR-RES ovarian
# RPMI-8226 leukemia = test system: RPMI-8226 leukemia
# SF-295 CNS = test system: SF-295 CNS
# NCI-H23 lung = test system: NCI-H23 lung
# SN12C renal = test system: SN12C renal
# UO-31 renal = test system: UO-31 renal
# NCI-H522 lung = test system: NCI-H522 lung
# A498 renal = test system: A498 renal
# HL-60(TB) leukemia = test system: HL-60(TB) leukemia
# COLO 205 colon = test system: COLO 205 colon
# OVCAR-4 ovarian = test system: OVCAR-4 ovarian
# MCF7 breast = test system: MCF7 breast
# T-47D breast = test system: T-47D breast
# OVCAR-8 ovarian = test system: OVCAR-8 ovarian
# SK-MEL-28 melanoma = test system: SK-MEL-28 melanoma
# CCRF-CEM leukemia = test system: CCRF-CEM leukemia
# A549 NSCLC = test system: A549 NSCLC
# M14 melanoma = test system: M14 melanoma
# 786-0 renal = test system: 786-0 renal
# K-562 leukemia = test system: K-562 leukemia
# ACHN renal = test system: ACHN renal
# NCI-H460 lung = test system: NCI-H460 lung
# OVCAR-3 ovarian = test system: OVCAR-3 ovarian
# HCC-2998 colon = test system: HCC-2998 colon
# HS 578T breast = test system: HS 578T breast
# HT29 colon = test system: HT29 colon
# SF-539 CNS = test system: SF-539 CNS
# RXF 393 renal = test system: RXF 393 renal
compound,measurement,setting,value
COc1cc(C(=O)c2cc3c(cc2C)OCO3)cc(OC)c1OC,GI50,PC-3 prostate,141 nM
same,TGI,PC-3 prostate,> 100000 nM
same,GI50,TK-10 renal,34200 nM
same,TGI,TK-10 renal,> 100000 nM
same,GI50,SK-MEL-2 melanoma,734 nM
same,TGI,SK-MEL-2 melanoma,> 100000 nM
same,GI50,IGROV1 ovarian,371 nM
same,TGI,IGROV1 ovarian,> 100000 nM
same,GI50,SNB-75 CNS,42.9 nM
same,TGI,SNB-75 CNS,> 100000 nM
same,GI50,SR leukemia,41.7 nM
same,TGI,SR leukemia,> 100000 nM
same,GI50,SW-620 colon,60.8 nM
same,TGI,SW-620 colon,> 100000 nM
same,GI50,OVCAR-5 ovarian,439 nM
same,TGI,OVCAR-5 ovarian,> 100000 nM
same,GI50,MDA-MB-231 breast,147 nM
same,TGI,MDA-MB-231 breast,> 100000 nM
same,GI50,HCT-116 colon,68.2 nM
same,TGI,HCT-116 colon,> 100000 nM
same,GI50,KM12 colon,70 nM
same,TGI,KM12 colon,> 100000 nM
same,GI50,CAKI-1 renal,208 nM
same,TGI,CAKI-1 renal,> 100000 nM
same,GI50,U251 CNS,158 nM
same,TGI,U251 CNS,> 100000 nM
same,GI50,NCI-H226 lung,554 nM
same,TGI,NCI-H226 lung,> 100000 nM
same,GI50,SF-268 CNS,360 nM
same,TGI,SF-268 CNS,> 100000 nM
same,TGI,SNB-19 CNS,> 100000 nM
same,GI50,HOP-62 NSCLC,170 nM
same,TGI,HOP-62 NSCLC,> 100000 nM
same,GI50,SK-MEL-5 melanoma,45.4 nM
same,TGI,SK-MEL-5 melanoma,1740 nM
same,GI50,HOP-92 NSCLC,85.5 nM
same,TGI,HOP-92 NSCLC,48600 nM
same,GI50,HCT-15 colon,52.8 nM
same,TGI,HCT-15 colon,> 100000 nM
same,GI50,LOX IMVI melanoma,551 nM
same,TGI,LOX IMVI melanoma,> 100000 nM
same,GI50,UACC-62 melanoma,247 nM
same,TGI,UACC-62 melanoma,> 100000 nM
same,GI50,SK-OV-3 ovarian,87.4 nM
same,TGI,SK-OV-3 ovarian,> 100000 nM
same,GI50,UACC-257 melanoma,91700 nM
same,TGI,UACC-257 melanoma,> 100000 nM
same,GI50,BT-549 breast,211 nM
same,TGI,BT-549 breast,> 100000 nM
same,GI50,MOLT-4 leukemia,117 nM
same,TGI,MOLT-4 leukemia,> 100000 nM
same,GI50,NCI/ADR-RES ovarian,226 nM
same,TGI,NCI/ADR-RES ovarian,> 100000 nM
same,GI50,RPMI-8226 leukemia,284 nM
same,TGI,RPMI-8226 leukemia,> 67300 nM
same,GI50,SF-295 CNS,102 nM
same,TGI,SF-295 CNS,> 100000 nM
same,GI50,NCI-H23 lung,319 nM
same,TGI,NCI-H23 lung,> 100000 nM
same,GI50,SN12C renal,289 nM
same,TGI,SN12C renal,> 100000 nM
same,GI50,UO-31 renal,624 nM
same,TGI,UO-31 renal,> 100000 nM
same,GI50,NCI-H522 lung,260 nM
same,TGI,NCI-H522 lung,3900 nM
same,GI50,A498 renal,32.2 nM
same,TGI,A498 renal,199 nM
same,GI50,HL-60(TB) leukemia,32.9 nM
same,TGI,HL-60(TB) leukemia,152 nM
same,GI50,COLO 205 colon,58.4 nM
same,TGI,COLO 205 colon,413 nM
same,GI50,OVCAR-4 ovarian,830 nM
same,TGI,OVCAR-4 ovarian,> 100000 nM
same,GI50,MCF7 breast,36.6 nM
same,TGI,MCF7 breast,> 100000 nM
same,GI50,T-47D breast,923 nM
same,TGI,T-47D breast,> 100000 nM
same,GI50,OVCAR-8 ovarian,317 nM
same,TGI,OVCAR-8 ovarian,> 100000 nM
same,GI50,SK-MEL-28 melanoma,87.9 nM
same,TGI,SK-MEL-28 melanoma,> 100000 nM
same,GI50,CCRF-CEM leukemia,43.4 nM
same,TGI,CCRF-CEM leukemia,> 100000 nM
same,GI50,A549 NSCLC,125 nM
same,TGI,A549 NSCLC,> 100000 nM
same,GI50,M14 melanoma,67.1 nM
same,TGI,M14 melanoma,> 100000 nM
same,GI50,786-0 renal,322 nM
same,TGI,786-0 renal,> 100000 nM
same,GI50,K-562 leukemia,51 nM
same,TGI,K-562 leukemia,> 100000 nM
same,GI50,ACHN renal,289 nM
same,TGI,ACHN renal,> 100000 nM
same,GI50,NCI-H460 lung,124 nM
same,TGI,NCI-H460 lung,> 33200 nM
same,GI50,OVCAR-3 ovarian,76.5 nM
same,GI50,HCC-2998 colon,218 nM
same,TGI,HCC-2998 colon,> 100000 nM
same,GI50,HS 578T breast,174 nM
same,TGI,HS 578T breast,> 100000 nM
same,GI50,HT29 colon,105 nM
same,TGI,HT29 colon,> 100000 nM
same,GI50,SF-539 CNS,61.7 nM
same,TGI,SF-539 CNS,376 nM
same,GI50,RXF 393 renal,51.5 nM
same,TGI,RXF 393 renal,> 100000 nM
